Patent US20150315211A1, “SMALL MOLECULES FOR THE MODULATION OF MCL-1 AND METHODS OF MODULATING CELL DEATH, CELL DIVISION, CELL DIFFERENTIATION AND METHODS OF TREATING DISORDERS” (priority 2010, published 2015)
Like-named read-outs stand apart in the source and are kept apart here.

Experiments:
MCL-1ΔNΔC [1] = test: High-throughput competitive FP binding screen, FITC-MCL-1 SAHB/MCL-1ΔNΔC interaction
MCL-1ΔNΔC [2] = molecular target: MCL-1ΔNΔC (Homo sapiens, UniProt Q07820); test: as above; set-up: the C-terminal alpha-helix was deleted from each of these constructs; GST (N, cleaved yes); made in house
BCL-XLΔC = BCL-XLΔC (Homo sapiens, UniProt Q07817); test: High-throughput competitive FP binding screen, FITC-BAD BH3/BCL-XLΔC interaction
[3] = selectivity for MCL-1ΔNΔC over BCL-XLΔC targeting (BCL-XL % Bound minus MCL-1 % Bound)
[4] = FITC-MCL-1 SAHB/MCL-1ΔNΔC interaction pair, competitive FP screen
[5] = FITC-BAD BH3/BCL-XLΔC interaction pair, competitive FP screen

MCL-1ΔNΔC (Homo sapiens, UniProt Q07820), sequence (Q07820 172-320 limits assumed, stated change not applied): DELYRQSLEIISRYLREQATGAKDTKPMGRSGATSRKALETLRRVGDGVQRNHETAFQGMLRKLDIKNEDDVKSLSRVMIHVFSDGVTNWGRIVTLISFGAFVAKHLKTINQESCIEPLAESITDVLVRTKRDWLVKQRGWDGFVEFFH
BCL-XLΔC, sequence (Q07817 1-212 limits assumed, stated change not applied): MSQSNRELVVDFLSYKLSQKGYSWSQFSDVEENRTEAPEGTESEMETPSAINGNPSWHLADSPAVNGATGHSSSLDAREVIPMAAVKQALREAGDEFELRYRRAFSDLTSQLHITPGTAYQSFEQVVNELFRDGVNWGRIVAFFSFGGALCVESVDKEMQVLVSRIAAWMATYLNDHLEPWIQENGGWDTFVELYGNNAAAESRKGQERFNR

| SMILES | Spec Values (MCL-1ΔNΔC [1]) | MCL-1% Bound (MCL-1ΔNΔC [2]) [%] | BCL-XL % Bound (BCL-XLΔC) [%] | Spec Values (MCL-1ΔNΔC [1]; [3]) | MCL-1% Bound (MCL-1ΔNΔC [2]; [4]) [%] | BCL-XL % Bound (BCL-XLΔC; [5]) [%] |
| --- | --- | --- | --- | --- | --- | --- |
| Cc1cc2c(C(C)C)c(O)c(O)c(C=O)c2c(O)c1-c1c(C)cc2c(C(C)C)c(O)c(O)c(C=O)c2c1O.[Na+].[Na+] | 97.07 | 3.955 | 101 | – | – | – |
| O=C(/C=C/c1ccco1)Nc1ccc(Br)cc1 | – | – | – | 48.95 | 47.95 | 96.9 |
| Cc1cc(NC(=O)/C=C/c2ccco2)n(-c2nc3ccccc3n2Cc2cccc(Oc3ccccc3)c2)n1 | – | – | – | 48.1 | 56.33 | 104.4 |
| Cc1ccc(/C=C/C(=O)N2CCN(C(c3ccccc3)c3ccccc3)CC2)o1 | – | – | – | 48.08 | 55.15 | 103.2 |
| O=C(/C=C/c1ccco1)Nc1ccc2ccccc2c1 | – | – | – | 48.07 | 64.64 | 112.7 |
| Cc1ccc(/C=C2\C(=O)N(c3ccccc3)c3ccccc32)o1 | – | – | – | 47.36 | 62.72 | 110.1 |
| C=CCN1C(=O)/C(=C\c2ccc(OC)cc2)C(=O)NC1=S | 76 | 19.08 | 95.09 | – | – | – |
| CCN1C(=O)C(=Cc2ccc(O)c(I)c2)C(=O)N(CC)C1=S | 61.04 | 39.32 | 100.4 | – | – | – |
| C=CCN1C(=O)/C(=C\c2ccc(N(CC)CC)cc2)C(=O)NC1=S | 60.35 | 41.82 | 102.2 | – | – | – |
| Cc1sc(-n2c(C)cc(C=C3C(=O)NC(=S)NC3=O)c2C)c(C#N)c1C | 56.82 | 45.2 | 102 | – | – | – |
| CCOc1cc(C=C2C(=O)N(C)C(=S)N(C)C2=O)ccc1OC(C)C(=O)O (stereo not shown) | 56.22 | 41.99 | 98.2 | – | – | – |
| CCN1C(=O)C(=Cc2cccn2C)C(=O)N(CC)C1=S | 53.66 | 52.01 | 105.7 | – | – | – |
| CSc1ncc(/C=C2/C(=O)NC(=O)N(C3CCCCC3)C2=O)cn1 | 52.58 | 46.42 | 99 | – | – | – |
| O=C1NC(=O)C(=Cc2ccc(Sc3ccc(Cl)cc3)o2)C(=O)N1 | 52.25 | 39.96 | 92.22 | – | – | – |
| O=C1NC(=O)N(CCc2ccc(F)cc2)C(=O)/C1=C\c1ccc(O)c(O)c1 | 50.75 | 30.59 | 81.34 | – | – | – |
| C=CCN1C(=O)/C(=C\c2ccc(N3CCOCC3)cc2C)C(=O)NC1=S | 49.65 | 33.01 | 82.66 | – | – | – |
| Cc1ccccc1C=C1C(=O)N(C)C(=S)N(C)C1=O | 48.03 | 51.19 | 99.22 | – | – | – |
| CCc1ccc(C=C2C(=O)N(C)C(=S)N(C)C2=O)cc1 | 45.4 | 55.45 | 100.9 | – | – | – |
| O=C(O)C(Cc1ccccc1)N1C(=O)/C(=C/C=C/c2ccco2)SC1=S (stereo not shown) | 97.44 | −9.611 | 87.83 | – | – | – |
| Nc1c(C(=O)NCc2ccco2)c2nc3ccccc3nc2n1CCc1ccccc1F | 93.2 | 6.6 | 99.9 | – | – | – |
| O=c1c(O)c(-c2ccc(O)c(O)c2)oc2cc(O)cc(O)c12 [drawing 15] | – | – | – | – | 16.69 | 105.3 |
| CC1=C(CC/C(C)=C/CCC2C=CC(C3=CC(=O)OC3O)OC2O)C(C)(C)CCC1 (stereo not shown) [drawing 17] | 71.82 | – | – | – | – | – |
| CCOc1cc(C(Nc2cccnc2)c2ccc3cccnc3c2O)ccc1O (stereo not shown) [drawing 35] | – | – | – | – | −0.3 | – |
| O=c1oc2c(O)c(O)cc3c(=O)oc4c(O)c(O)cc1c4c23 [drawing 165] | – | – | – | 89.32 | 1.26 | – |
| CC1=C(CC/C(C)=C/CCC2C=CC(C3=CC(=O)OC3O)OC2O)C(C)(C)CCC1 (stereo not shown) [drawing 207] | 71.82 | – | – | – | – | – |
